Values joined by “and” are separate entries in the source; they are usually repeats but may differ in a detail not shown here. Equal entries are not always repeated.
Columns and labels:
[1] = FTIH study: single dose (Day 1) pharmacokinetics of Compound tablets; format: in vivo; settings: human; for AUC(0-t): read-out: AUC (0-24); for concentration at 24 h: read-out: C24
Text: Preliminary PK data was obtained in subjects with solid tumors following single- and repeat-dose oral administration of Compound tablets. The dose-escalation part of the first-time-in-human study (FTIH), involved administration of Compound in one of 3 main dosing regimens:

[2] = FTIH study: repeat dose (Day 15) pharmacokinetics of Compound tablets; settings: human;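 further: subjects with solid tumors in a first-in-human dose-escalation study, single and repeated once-daily oral tablet dosing, some regimens starting with a loading dose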
Text: (§4) Preliminary PK data was obtained in subjects with solid tumors following single- and repeat-dose oral administration of Compound tablets.
(§5) Additional blood samples were taken pre-dose on Day15 of Cycle 1 and Day 1 of further cycles in Part 2 and Part 3 to assess steady state trough levels of Compound.

[3] = 13 week repeat dose oral toxicokinetic/toxicology study in dogs; settings: dog; for AUC / Cmax: beagle, in vivo, po
Text: (§1) The pharmacokinetics, absorption, distribution, metabolism and elimination of N-{3-[3-cyclopropyl-5-(2-fluoro-4-iodo-phenylamino)-6,8-dimethyl-2,4,7-trioxo-3,4,6,7-tetrahydro-2H-pyrido[4,3-d]pyrimidin-1-yl]phenyl}acetamide and solvates thereof, including the dimethyl sulfoxide solvate (collectively referred to as “Compound” when used in connection with animal models or human clinical trials), were investigated in a series of in vitro investigations and with in vivo oral (gavage) and IV studies in the Balb/c mouse, Sprague Dawley rat (unless otherwise stated), beagle dog and cynomolgus monkey using unlabeled and [14C]-labeled Compound. A list of these studies is included, along with subsequently obtained human clinical results, in Table 1 below. For in vivo studies, various formulations were used. For oral dosing, solutions or suspensions were administered.
(§2) Dose range studies in rats at doses up to 1 mg/kg/day for 14 days and in dogs at doses up to 0.5 mg/kg/day (or 10 mg/m2/day) for 10 days were conducted prior to the studies.
(§3) In vivo toxicology studies were conducted in Sprague Dawley rats and beagle dogs by oral gavage (Table 3). Studies were conducted using the DMSO solvate of Compound formulated as a suspension in 1.5% hydroxypropylmethylcellulose, 5% mannitol, and 0.2% sodium lauryl sulfate. For all toxicology studies, doses are expressed based on body surface area (mg/m2). In general, to convert mg/m2 doses to mg/kg, divide the doses by 8 for rats and 20 for dogs.

[4] = 3 week repeat dose oral toxicokinetic/toxicology study in dogs; settings: for maximum tolerated dose (MTD): oral; for AUC / Cmax at 3 weeks / Cmax: in vivo, po
Text: as §1, §2, §3

clinical = settings: human, plasma
Text: as §4, §5

[5] = plasma, oral, Day 1, fasting, 6.0 mg loading dose, mean (CV %), N 10
[6] = plasma, oral, Day 1, fasting, 8.0 mg loading dose, mean (CV %), N 7
[7] = plasma, oral, Day 1, fasting, 10.0 mg loading dose, mean (CV %), N 4
[8] = plasma, single oral dose Day 1, fasting, 0.25 mg, individual (N 1)
[9] = plasma, single oral dose Day 1, fasting, 2.0 mg, mean (CV %), N 3
[10] = plasma, single oral dose Day 1, fasting, 2.5 mg, mean (CV %), N 9
[11] = plasma, single oral dose Day 1, fasting, 3.0 mg, mean (CV %), N 12
[12] = plasma, single oral dose Day 1, fasting, 4.0 mg, mean (CV %), N 3
[13] = female, Sprague Dawley, rat, 0.125 mg/m2
[14] = female, Sprague Dawley, rat, 0.25 mg/m2
[15] = female, Sprague Dawley, rat, 0.5 mg/m2
[16] = female, Sprague Dawley, rat, 1 mg/m2
[17] = female, Sprague-Dawley, rat, 0.125 mg/m2
[18] = female, Sprague-Dawley, rat, 0.25 mg/m2
[19] = male, Sprague Dawley, rat, 0.125 mg/m2
[20] = male, Sprague Dawley, rat, 0.25 mg/m2
[21] = male, Sprague Dawley, rat, 0.5 mg/m2
[22] = male, Sprague Dawley, rat, 1 mg/m2
[23] = male, Sprague-Dawley, rat, 0.25 mg/m2
[24] = male, Sprague-Dawley, rat, 0.5 mg/m2

In the case of `CC(=O)Nc1cccc(-n2c(=O)n(C3CC3)c(=O)c3c(Nc4ccc(I)cc4F)n(C)c(=O)c(C)c32)c1` [Compound, N-{3-[3-cyclopropyl-5-(2-fluoro-4-iodo-phenylamino)-6,8-dimethyl-2,4,7-trioxo-3,4,6,7-tetrahydro-2H-pyrido[4,3-d]pyrimidin-1-yl]phenyl}acetamide], the “dose proportionality of AUC (0-24) and Cmax” value ([1]; single dose Day 1, lower than proportional at 8 mg, greater at 10 mg) is reported as “dose proportional up to 6 mg”, the Tmax ([1]; single oral dose Day 1, fasting, 0.25 mg, individual (N 1)) is reported as 1.03 h and the Cmax [1, 5] is reported as 23.2 ng/mL. For the same compound, the AUC(0-t) [1, 5] was 197 ng·h/mL, the concentration at 24 h [1, 5] was 6.58 ng/mL and the Tmax ([1]; plasma, oral, Day 1, fasting, 6.0 mg loading dose, median, N 10, read-out: Tmax) was 1.5 h. For the same compound, the Cmax [1, 6] was 14.9 ng/mL, the AUC(0-t) [1, 6] was 161 ng·h/mL and the concentration at 24 h [1, 6] was 5.81 ng/mL. The Tmax ([1]; plasma, oral, Day 1, fasting, 8.0 mg loading dose, median, N 7, read-out: Tmax) was 3 h, the Cmax [1, 7] was 78.7 ng/mL and the AUC(0-t) [1, 7] was 884 ng·h/mL. For the same compound, the concentration at 24 h [1, 7] was 25.5 ng/mL, the Tmax ([1]; plasma, oral, Day 1, fasting, 10.0 mg loading dose, median, N 4, read-out: Tmax) was 1.5 h and the Tmax ([1]; plasma, oral, single dose Day 1, range across doses, read-out: Median Tmax) was 1 to 3 h. It also gave a Cmax [1, 8] of 0.34 ng/mL, a concentration at 24 h [1, 8] of 0 ng/mL and a Cmax [1, 9] of 6.83 ng/mL. It also gave an AUC(0-t) [1, 9] of 56.2 ng·h/mL, a concentration at 24 h [1, 9] of 1.49 ng/mL and a Tmax ([1]; plasma, single oral dose Day 1, fasting, 2.0 mg, median, N 3, read-out: Tmax) of 1.5 h. It also gave a Cmax [1, 10] of 9.68 ng/mL, an AUC(0-t) [1, 10] of 71.1 ng·h/mL and a concentration at 24 h [1, 10] of 1.81 ng/mL. The Tmax ([1]; plasma, single oral dose Day 1, fasting, 2.5 mg, median, N 9, read-out: Tmax) was 1.5 h, the Cmax [1, 11] was 11.5 ng/mL and the AUC(0-t) [1, 11] was 81.4 ng·h/mL. For the same compound, the concentration at 24 h [1, 11] was 3.35 ng/mL, the Tmax ([1]; plasma, single oral dose Day 1, fasting, 3.0 mg, median, N 12, read-out: Tmax) was 1.25 h and the Cmax [1, 12] was 27.1 ng/mL. For the same compound, the AUC(0-t) [1, 12] was 223 ng·h/mL, the concentration at 24 h [1, 12] was 8.77 ng/mL and the “dose proportionality of mean AUC(0-tau) and Cmax” value ([2]; Day 15) was “generally increased in a dose-proportional manner”. The Mean trough concentration ([2]; Day 15, repeat dosing of 2.5 mg, CV 54%) was 16.8 ng/mL, the “effective half-life (T½, eff)” value ([2]; calculated based on the accumulation ratio) was “approximately 5 days” and the mean accumulation ratio ([2]; repeat daily dosing, recommended dose of 2 mg QD) was 6.6. The “No Observed Adverse Effect Level (NOAEL)” value ([3]; 13 weeks, oral) was 0.45 mg/m^2/day, the AUC ([3]; female, 0.15 mg/m2) was 51.8 ng·h/mL and the Cmax ([3]; female, 0.15 mg/m2) was 2.71 ng/mL. The Cmax ([3]; female, 0.3 mg/m2) was 7.24 ng/mL, the AUC ([3]; female, 0.45 mg/m2/day) was 150 ng·h/mL and the Cmax ([3]; female, 0.45 mg/m2/day) was 9.78 ng/mL. It also gave an AUC ([3]; male, 0.15 mg/m2) of 45.6 ng·h/mL, a Cmax ([3]; male, 0.15 mg/m2) of 2.32 ng/mL and an AUC ([3]; male, 0.3 mg/m2) of 95.5 ng·h/mL. For the same compound, the Cmax ([3]; male, 0.3 mg/m2) was 5.15 ng/mL, the AUC ([3]; male, 0.45 mg/m2/day) was 128 ng·h/mL and the Cmax ([3]; male, 0.45 mg/m2/day) was 8.42 ng/mL. The “maximum tolerated dose (MTD)” value ([4]; dog, 3 weeks) was 0.5 mg/m^2/day, the AUC [4, 13] was 60.2 ng·h/mL and the Cmax at 3 weeks [4, 13] was 3.33 ng/mL. For the same compound, the AUC [4, 14] was 126 ng·h/mL, the Cmax at 3 weeks [4, 14] was 6.28 ng/mL and the AUC [4, 15] was 211 ng·h/mL. The Cmax at 3 weeks [4, 15] was 13 ng/mL, the AUC [4, 16] was 460 ng·h/mL and the Cmax at 3 weeks [4, 16] was 29.4 ng/mL. It also gave an AUC [4, 17] of 102 ng·h/mL, a Cmax [4, 17] of 5.3 ng/mL and an AUC [4, 18] of 158 ng·h/mL. It also gave a Cmax [4, 18] of 8.03 ng/mL, a Cmax ([4]; female, beagle, dog, 0.3 mg/m2) of 7.19 ng/mL and an AUC ([4]; female, beagle, dog, 0.4 mg/m2) of 211 ng·h/mL. For the same compound, the Cmax ([4]; female, beagle, dog, 0.4 mg/m2) was 11.6 ng/mL, the AUC ([4]; female, beagle, dog, 0.5 mg/m2) was 205 ng·h/mL and the Cmax ([4]; female, beagle, dog, 0.5 mg/m2) was 12.3 ng/mL. For the same compound, the AUC [4, 19] was 35 ng·h/mL, the Cmax [4, 19] was 1.78 ng/mL and the AUC [4, 20] was 64.2 ng·h/mL. The Cmax at 3 weeks [4, 20] was 3.5 ng/mL, the AUC [4, 21] was 129 ng·h/mL and the Cmax at 3 weeks [4, 21] was 7.78 ng/mL. The AUC [4, 22] was 218 ng·h/mL, the Cmax at 3 weeks [4, 22] was 13.3 ng/mL and the AUC [4, 23] was 95.4 ng·h/mL. For the same compound, the Cmax [4, 23] was 5.34 ng/mL, the AUC [4, 24] was 277 ng·h/mL and the Cmax [4, 24] was 15.4 ng/mL. For the same compound, the AUC ([4]; male, beagle, dog, 0.5 mg/m2) was 159 ng·h/mL, the Cmax ([4]; male, beagle, dog, 0.5 mg/m2) was 9.37 ng/mL and the AUC ([4]; male, beagle, dog, 0.75 mg/m2) was 282 ng·h/mL. For the same compound, the Cmax ([4]; male, beagle, dog, 0.75 mg/m2) was 19 ng/mL, the “maximum tolerated dose (MTD)” value ([4]; rat, 3 weeks, two doses marked MTD, sex shown by bolding only (lost)) was 0.5 mg/m^2/day and 1 mg/m^2/day and the “maximum tolerated dose (MTD)” value ([4]; rat, 13 weeks) was 0.25 mg/m^2/day. The AUC (clinical; both, oral, 2 mg) was 360 ng·h/mL, the Cmax (clinical; both, oral, 2 mg) was 23.3 ng/mL and the AUC(0-t) (clinical; po, 0.25 mg) was 31.1 ng·h/mL. It also gave a Cmax (clinical; po, 0.25 mg) of 2.08 ng/mL, a Tmax (clinical; po, 0.25 mg) of 1.5 h and a concentration at 24 h (clinical; po, 0.25 mg) of 1.16 ng/mL. The AUC(0-t) (clinical; po, 2 mg) was 376 ng·h/mL, the Cmax (clinical; po, 2 mg) was 23 ng/mL and the Tmax (clinical; po, 2 mg) was 1.75 h. For the same compound, the concentration at 24 h (clinical; po, 2 mg) was 12.3 ng/mL, the half-life (clinical; po, 2 mg) was 101 h and the AUC(0-t) (clinical; po, 2.5 mg) was 448 ng·h/mL. It also gave a Cmax (clinical; po, 2.5 mg) of 26.7 ng/mL, a Tmax (clinical; po, 2.5 mg) of 2 h and a concentration at 24 h (clinical; po, 2.5 mg) of 17 ng/mL. It also gave a half-life (clinical; po, 2.5 mg) of 127 h, an AUC(0-t) (clinical; po, 3 mg) of 575 ng·h/mL and a Cmax (clinical; po, 3 mg) of 35.8 ng/mL. The Tmax (clinical; po, 3 mg) was 2.1 h, the concentration at 24 h (clinical; po, 3 mg) was 19.5 ng/mL and the half-life (clinical; po, 3 mg) was 110 h.

Source: patent US20130266649A1, “NOVEL PHARMACEUTICAL COMPOSITION” (priority 2010, published 2013)
